# Reference: ChEMBL document CHEMBL1127657, “Haloperidol-based irreversible inhibitors of the HIV-1 and HIV-2 proteases” (J Med Chem, 1994)
# What was measured:
# [1] = biological target: Human immunodeficiency virus type 1 protease (Human immunodeficiency virus 1, UniProt Q72874); test: In vitro inhibition of recombinant HIV-1 protease expressed in Escherichia coli strain D1210
# [2] = biological target: T1, Human rhinovirus A protease (Human rhinovirus sp.) (UniProt Q4U254); conditions: Human immunodeficiency virus 2
# T1 sequence (whole entry): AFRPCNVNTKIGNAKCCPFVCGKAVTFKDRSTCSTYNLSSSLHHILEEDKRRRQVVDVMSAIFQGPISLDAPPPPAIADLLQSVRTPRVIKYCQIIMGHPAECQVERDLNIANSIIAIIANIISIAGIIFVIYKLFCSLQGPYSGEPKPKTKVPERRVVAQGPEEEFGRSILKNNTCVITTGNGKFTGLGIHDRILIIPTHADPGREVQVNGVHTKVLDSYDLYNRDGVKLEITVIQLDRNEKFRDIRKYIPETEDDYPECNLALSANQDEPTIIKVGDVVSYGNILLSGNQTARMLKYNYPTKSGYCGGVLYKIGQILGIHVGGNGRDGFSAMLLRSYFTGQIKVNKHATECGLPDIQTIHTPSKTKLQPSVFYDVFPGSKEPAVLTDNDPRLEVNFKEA
# [3] = biological target: Human immunodeficiency virus type 1 protease (Human immunodeficiency virus 1) (UniProt Q72874)
# Description: The irreversibility of the inactivation reaction of HIV-1 PR was assessed
Structure (SMILES),IC50 [1] [µM],K inact [2] [min⁻¹],K inact [3] [min⁻¹]
O=C(C#CCN1CCC(O)(c2ccc(Cl)cc2)CC1)c1cccc(-c2ccccc2)c1,63,,
OC1(C#CC2(c3ccccc3)CO2)CCN(Cc2ccccc2)CC1 (centres undefined),725,,
O=C(C#CCN1CCC(O)(c2ccc(Cl)cc2)CC1)c1ccccc1,20,,
O=C(C#CCN1CCC(O)(c2ccc(Cl)cc2)CC1)c1ccc(-c2ccccc2)cc1,100,,
O=C(/C=C/C[N+]1([O-])CCC(O)(c2ccc(Cl)cc2)CC1)c1ccc(F)cc1 (centres undefined),30,4.33,86
OC1(c2ccc(Cl)cc2)CCN(CC#CC2(c3ccccc3)CO2)CC1 (centres undefined),150,,
O=C(/C=C/CN1CCC(O)(c2ccc(Cl)cc2)CC1)c1ccc(F)cc1,80,,
